pEC50: −log10 of the molar value.
Key:
[1] = molecular target: T1, Aβ1-40 (Homo sapiens, UniProt P05067); assay: Nucleation assay (turbidity at 405 nm, change in lag time); type: biochemical; details: for Nucleation assay data 0.3 µM / Nucleation assay data 1 µM / Nucleation assay data 3 µM: Table II; for Nucleation assay Δlag 1.25 µM / Nucleation assay Δlag […] / Nucleation assay Δlag 5 µM: Table I
T1 construct: first Aβ1-40 peptide is dissolved in HFIP
Description: The nucleation assay is employed to determine the ability of test compounds to alter (e.g. inhibit) the early events in formation of β-AP fibers from monomeric β-AP. Characteristic of a nucleated polymerization mechanism, a lag time is observed prior to nucleation, after which the peptide rapidly forms fibers as reflected in a linear rise in turbidity. The time delay before polymerization of β-AP monomer can be quantified as well as the extent of formation of insoluble fiber by light scattering (turbidity). Polymerization reaches equilibrium when the maximum turbidity reaches a plateau. The turbidity of a solution of natural β-AP in the absence or presence of various concentrations of a β-amyloid modulator compound is determined by measuring the apparent absorbance of the solution at 405nm (A405 nm) over time. The threshold of sensitivity for the measurement of turbidity is in the range of 15-20 µM β-AP. […] This assay can be performed using stirring or shaking to accelerate polymerization, thereby increasing the speed of the assay. Moreover the assay can be adapted to a 96-well plate format to screen multiple compounds.
To perform the nucleation assay, first Aβ1-40 peptide is dissolved in HFIP (1,1,1,3,3,3-Hexafluoro-2-propanol; Aldrich 10,522-8) at a concentration of 2 mg peptide/ml and incubated at room temperature for 30 min. HFIP-solubilized peptide is sonicated in a waterbath sonicator for 5 min at highest setting, then evaporated to dryness under a stream of argon. The peptide film is resuspended in anhydrous dimethylsulfoxide (DMSO) at a concentration of 6.9 mg/ml (25x concentration), sonicated for 5 min as before, then filtered through a 0.2 micron nylon syringe filter (VWR cat. No. 28196-050). Test compounds are dissolved in DMSO at a 100x concentration. Four volumes of 25x Aβ1-40 peptide in DMSO are combined with one volume of test compound in DMSO in a glass vial, and mixed to produce a 1:1 molar ratio of Aβ peptide to test compound. For different molar ratios, test compounds are diluted with DMSO prior to addition to Aβ1-40, in order to keep the final DMSO and Aβ1-40 concentrations constant. […] Ten microliters of the mixture is then added to the bottom of a well of a Coming Costar ultra low binding 96-well plate (Corning Costar, Cambridge MA; cat. No. 2500). Ninety microliters of water is added to the well, the plate is shaken on a rotary shaken at a constant speed at room temperature for 30 seconds, an additional 100 µl of 2x PTL buffer (20 mM NaH2PO4, 300 mM NaCl, pH 7.4) is added to the well, the plate is reshaken for 30 seconds and a baseline (t=0) turbidity reading is taken by measuring the apparent absorbance at 405 nm using a Bio-Rad Model 450 Microplate Reader. The plate is then returned to the shaker and shaken continuously for 5 hours. Turbidity readings are taken at 15 minute intervals.
β-amyloid aggregation in the absence of any modulators results in enhanced turbidity of the natural β-AP solution (i.e., an increase in the apparent absorbance at 405 nm over time).

[2] = test system: PC12 cells; assay: Neurotoxicity assay (MTT viability), PC-12 cells; type: cell-based, rat; details: aged (5 day or 8 day) aggregates, 48 hours, read-out: EC50 for toxicity
Description: (§1) The neurotoxicity of natural β-amyloid peptide aggregates, in either the presence or absence of a β-amyloid modulator, can be tested in a cell-based assay using either a rat or human neuronally-derived cell line (PC-12 cells or NT-2 cells, respectively) and the viability indicator […]-tetrazolium bromide (MTT). (See e.g., Shearman, M.S. et al. (1994) Proc. Natl. Acad. Sci. USA 91:1470-1474; Hansen, M.B. et al. (1989) J Immun. Methods 119:203-210 for a description of similar cell-based viability assays). PC-12 is a rat adrenal pheochromocytoma cell line and is available from the American Type Culture Collection, Rockville, MD (ATCC CRL 1721). MTT (commercially available from Sigma Chemical Co.) is a chromogenic substrate that is converted from yellow to blue in viable cells, which can be detected spectrophotometrically. […]

[3] = test system: NT2 cells; assay: Neurotoxicity assay (MTT viability), NT-2 cells; type: cell-based, human; details: aged (5 day or 8 day) aggregates, 48 hours, read-out: EC50 for toxicity
Description: as §1

[4] = rows marked *: measured at 0.6 µM of compound
[5] = rows marked *: measured at 1.25 µM of compound
[6] = rows marked *: measured at […] of compound
[7] = 0.3 µM test compound, 5 µM Aβ1-40, ΔLag, ratio to control lag time
[8] = 1 µM test compound, 5 µM Aβ1-40, ΔLag, ratio to control lag time
[9] = 3 µM test compound, 5 µM Aβ1-40, ΔLag, ratio to control lag time
[10] = 1.25 µM test compound, 5 µM Aβ1-40, ratio to control lag time
[11] = 5 µM test compound, 5 µM Aβ1-40, ratio of lag time with compound to lag time of control
[12] = […] test compound, 5 µM Aβ1-40, ratio to control lag time

T1 sequence (P05067 672-711): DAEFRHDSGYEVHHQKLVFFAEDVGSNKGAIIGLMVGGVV

Substance	Nucleation assay Δlag 1.25 µM [1, 10]	Nucleation assay Δlag 5 µM [1, 11]	Nucleation assay Δlag […] [1, 12]	further results
2 TFA·H-lvf-NH-NH-fvl-H [PPI-1125]	–	–	–	Nucleation assay data 0.3 µM [1, 4]: 2.0; Nucleation assay data 1 µM [1, 5]: >2.5; Nucleation assay data 3 µM [1, 6]: >2.5
2TFA·H-(lfkvl)-NH2 [PPI-1321]	–	–	–	Nucleation assay data 0.3 µM [1, 7]: <1; Nucleation assay data 1 µM [1, 8]: <1; Nucleation assay data 3 µM [1, 9]: <1
TFA·H-(Glvffl)-NH2 [PPI-1013]	–	–	–	Nucleation assay Δlag 1.25 µM ([1]; rows marked #: measured at 0.6 µM of compound): 2; Nucleation assay Δlag […] ([1]; rows marked #: measured at 1.25 µM of compound): >3; Nucleation assay Δlag 5 µM ([1]; rows marked #: measured at […] of compound): 2
TFA·H-(lf-D-Cha-vl)-NH2 [PPI-1318]	–	–	–	Nucleation assay data 0.3 µM [1, 7]: 1; Nucleation assay data 1 µM [1, 8]: 2; Nucleation assay data 3 µM [1, 9]: >5
TFA·H-(lf-[F5]f-vl)-NH2 [PPI-1320]	–	–	–	Nucleation assay data 0.3 µM [1, 7]: 1; Nucleation assay data 1 µM [1, 8]: 3; Nucleation assay data 3 µM [1, 9]: >5
TFA·H-(lf-[p-F]f-vl)-NH2 [PPI-1319]	–	–	–	Nucleation assay data 0.3 µM [1, 7]: 1; Nucleation assay data 1 µM [1, 8]: >5; Nucleation assay data 3 µM [1, 9]: >5
TFA·H-(lvffa)-dimethylamide [PPI-993]	1	1	1	–
TFA·H-(lvffa)-isopropylamide [PPI-992]	1	3	1	–
TFA·N,N-diethyl-(Gaffvl)-NH2 [PPI-1005]	1	3	3	–
TFA·N,N-diethyl-(affvl)-NH, [PPI-1006]	1	1	1	–
TFA·N,N-dimethyl-(Gaffvl)-NH2 [PPI-803]	<1	<1	<1	–
TFA·N,N-dimethyl-(affvl)-NH2 [PPI-913]	1	1	1	–
TFA·N-ethyl-(Gaffvl)-NH2 [PPI-969]	3	>5	>5	–
TFA·N-isopropyl-(Gaffvl)-NH2 [PPI-970]	1	>5	>5	–
TFA·N-methyl-(Gaffvl)-NH2 [PPI-968]	2	>5	>5	–
TFA•N-methyl-(lvffl)-NH2 [PPI-1019]	–	–	–	Nucleation assay data 0.3 µM [1, 4]: 2.0; Nucleation assay data 1 µM [1, 5]: >2.5; Nucleation assay data 3 µM [1, 6]: >2.5
aged Aβ1-40 aggregates: Aβ1-40 peptide solution incubated at 37 °C for eight days to allow fibrils to form	–	–	–	pEC50 [2]: 5.70 to 6.00; pEC50 [3]: 5.70 to 6.00

— EP1870419A2, “Modulators of beta-amyloid peptide aggregation comprising D-amino acids” (Praecis Pharmaceuticals Incorporated, priority 1999, dated 2000)
